Test results published in US8501794B2, “Compounds as cannabinoid receptor ligands” (priority 2007, dated 2013).
Read-outs that look alike come from different tables or passages of the source.

How the values were obtained:
human CB2 receptors = biological target: T1, human CB2 receptors (Homo sapiens, UniProt P34972); experiment: human CB2 radioligand binding assay ([3H]CP-55,940 competition)
T1 construct: expressed in transfected cells; host or cells: HEK293

rat CB2 [1] = biological target: T2, rat CB2 (Rattus norvegicus, UniProt Q9QZN9); experiment: rat CB2 cyclase functional assay (HitHunter cAMP, HEK cells); format: cell-based; parameters: expressed in transfected cells; host or cells: HEK; conditions: forskolin 18 μM
T2 sequence (Q9QZN9 1-360): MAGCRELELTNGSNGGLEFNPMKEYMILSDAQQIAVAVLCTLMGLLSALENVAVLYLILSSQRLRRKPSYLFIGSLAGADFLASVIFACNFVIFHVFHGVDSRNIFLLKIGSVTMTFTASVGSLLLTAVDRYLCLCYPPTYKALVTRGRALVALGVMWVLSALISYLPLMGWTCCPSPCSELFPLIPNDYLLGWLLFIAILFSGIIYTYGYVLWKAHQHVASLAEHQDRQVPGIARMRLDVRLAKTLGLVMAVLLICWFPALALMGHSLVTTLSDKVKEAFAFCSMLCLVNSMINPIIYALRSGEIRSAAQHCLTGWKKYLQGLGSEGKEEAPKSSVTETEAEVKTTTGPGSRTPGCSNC

rat CB2 [2] = biological target: T2, rat CB2; experiment: rat CB2 radioligand binding assay ([3H]CP-55,940 competition); parameters: expressed in transfected cells; host or cells: HEK293

T1 sequence (P34972 whole entry): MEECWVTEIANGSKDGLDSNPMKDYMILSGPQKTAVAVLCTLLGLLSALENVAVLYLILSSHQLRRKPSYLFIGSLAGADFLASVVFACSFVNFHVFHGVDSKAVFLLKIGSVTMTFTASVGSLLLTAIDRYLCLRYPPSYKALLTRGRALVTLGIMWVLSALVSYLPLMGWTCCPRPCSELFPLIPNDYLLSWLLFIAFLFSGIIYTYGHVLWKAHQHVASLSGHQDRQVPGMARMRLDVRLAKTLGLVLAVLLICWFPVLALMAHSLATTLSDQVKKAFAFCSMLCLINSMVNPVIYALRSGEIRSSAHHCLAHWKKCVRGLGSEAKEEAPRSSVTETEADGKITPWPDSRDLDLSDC

In the case of CCCCc1cn(C(C)(C)C)s/c1=N\C(=O)C1(C)CCC(C(=O)OC)C1(C)C (racemic) [Example 92, Methyl 3-({[(5Z)-4-butyl-2-tert-butylisothiazol-5(2H)-ylidene]amino}carbonyl)-2,2,3-trimethylcyclopentanecarboxylate], the Ki (human CB2 receptors) is reported as 0.2 nM, the EC50 (rat CB2 [1]) is reported as 0.45 nM and the Ki (rat CB2 [2]) is reported as 0.25 nM.
In the case of CCCCc1cn(C(C)(C)C)s/c1=N\C(=O)c1cc(Cl)ccc1OC [Example 1, N-[(5Z)-4-butyl-2-tert-butylisothiazol-5(2H)-ylidene]-5-chloro-2-methoxybenzamide], the Ki (human CB2 receptors) is reported as 16 nM, the EC50 (rat CB2 [1]) is reported as 0.72 nM and the Ki (rat CB2 [2]) is reported as 1.5 nM.
In the case of C=CCc1cn(C(C)(C)C)s/c1=N\C(=O)c1cc(Cl)ccc1OC [Example 6, N-[(5Z)-4-allyl-2-tert-butylisothiazol-5(2H)-ylidene]-5-chloro-2-methoxybenzamide], the Ki (human CB2 receptors) is reported as 210 nM, the EC50 (rat CB2 [1]) is reported as 2.4 nM and the Ki (rat CB2 [2]) is reported as 16 nM.
COc1ccc(Cl)cc1C(=O)/N=c1\sn(C(C)(C)C)cc1CC1CC(C)=NO1 (stereo not shown) [Example 7] showed a Ki (human CB2 receptors) of 370 nM, an EC50 (rat CB2 [1]) of 2.7 nM and a Ki (rat CB2 [2]) of 8.8 nM.
COc1ccc(Cl)cc1C(=O)/N=c1\sn(C(C)(C)C)cc1CC1CC1 [Example 8, N-[(5Z)-2-tert-butyl-4-(cyclopropylmethyl)isothiazol-5(2H)-ylidene]-5-chloro-2-methoxybenzamide] gave a Ki (human CB2 receptors) of 4 nM, an EC50 (rat CB2 [1]) of 1 nM and a Ki (rat CB2 [2]) of 1.1 nM.
COc1ccc(Cl)cc1C(=O)/N=c1\sn(C(C)(C)C)cc1CCN=[N+]=[N-] [Example 14, N-[(5Z)-4-(2-azidoethyl)-2-tert-butylisothiazol-5(2H)-ylidene]-5-chloro-2-methoxybenzamide] gave a Ki (human CB2 receptors) of 26 nM, an EC50 (rat CB2 [1]) of 0.71 nM and a Ki (rat CB2 [2]) of 2.4 nM.
CON=CCCc1cn(C(C)(C)C)s/c1=N\C(=O)c1cc(Cl)ccc1OC [Example 15, N-[(5Z)-2-tert-butyl-4-[3-(methoxyimino)propyl]isothiazol-5(2H)-ylidene]-5-chloro-2-methoxybenzamide] was tested, and the Ki (human CB2 receptors) was 170 nM, the EC50 (rat CB2 [1]) was 1.1 nM and the Ki (rat CB2 [2]) was 15 nM.
COc1ccc(Cl)cc1C(=O)/N=c1\sn(C(C)(C)C)cc1CCC(C)O (stereo not shown) [Example 18, N-[(5Z)-2-tert-butyl-4-(3-hydroxybutyl)isothiazol-5(2H)-ylidene]-5-chloro-2-methoxybenzamide] gave a Ki (human CB2 receptors) of 86 nM, an EC50 (rat CB2 [1]) of 2.7 nM and a Ki (rat CB2 [2]) of 4.3 nM.
With COc1ccc(Cl)cc1C(=O)/N=c1\sn(C(C)(C)C)cc1CCC#N [Example 19, N-[(5Z)-2-tert-butyl-4-(2-cyanoethyl)isothiazol-5(2H)-ylidene]-5-chloro-2-methoxybenzamide] the Ki (human CB2 receptors) was 44 nM, the EC50 (rat CB2 [1]) was 0.57 nM and the Ki (rat CB2 [2]) was 7.1 nM.
In the case of COc1ccc(Cl)cc1C(=O)/N=c1\sn(C(C)(C)C)cc1CC1OCCO1 [Example 22, N-[(5Z)-2-tert-butyl-4-(1,3-dioxolan-2-ylmethyl)isothiazol-5(2H)-ylidene]-5-chloro-2-methoxybenzamide], the Ki (human CB2 receptors) is reported as 67 nM, the EC50 (rat CB2 [1]) is reported as 0.24 nM and the Ki (rat CB2 [2]) is reported as 6.2 nM.
COc1ccc(Cl)cc1C(=O)/N=c1\sn(C(C)(C)C)cc1C(O)C(C)C (stereo not shown) [Example 23, N-[(5Z)-2-tert-butyl-4-(1-hydroxy-2-methylpropyl)isothiazol-5(2H)-ylidene]-5-chloro-2-methoxybenzamide] showed a Ki (human CB2 receptors) of 14 nM, an EC50 (rat CB2 [1]) of 0.89 nM and a Ki (rat CB2 [2]) of 2.7 nM.
Molecule CC/C=C\c1cn(C(C)(C)C)s/c1=N\C(=O)c1cc(Cl)ccc1OC [Example 25, N-[(5Z)-4-[(1Z)-but-1-enyl]-2-tert-butylisothiazol-5(2H)-ylidene]-5-chloro-2-methoxybenzamide] has a Ki (human CB2 receptors) of 51 nM, an EC50 (rat CB2 [1]) of 1.7 nM and a Ki (rat CB2 [2]) of 1.6 nM.
CCCCc1cn(C(C)(C)C)s/c1=N\C(=O)c1cc(C#N)ccc1OC [Example 26, N-[(5Z)-4-butyl-2-tert-butylisothiazol-5(2H)-ylidene]-5-cyano-2-methoxybenzamide] was tested, and the Ki (human CB2 receptors) was 14 nM, the EC50 (rat CB2 [1]) was 0.23 nM and the Ki (rat CB2 [2]) was 1 nM.
CCOCc1cn(C(C)(C)C)s/c1=N\C(=O)c1cc(Cl)ccc1OC [Example 29, N-[(5Z)-2-tert-butyl-4-(ethoxymethyl)isothiazol-5(2H)-ylidene]-5-chloro-2-methoxybenzamide] gave a Ki (human CB2 receptors) of 180 nM, an EC50 (rat CB2 [1]) of 0.41 nM and a Ki (rat CB2 [2]) of 13 nM.
With COc1ccc(Cl)cc1C(=O)/N=c1\sn(C(C)(C)C)cc1CCCC#N [Example 30, N-[(5Z)-2-tert-butyl-4-(3-cyanopropyl)isothiazol-5(2H)-ylidene]-5-chloro-2-methoxybenzamide] the Ki (human CB2 receptors) was 17 nM, the EC50 (rat CB2 [1]) was 0.2 nM and the Ki (rat CB2 [2]) was 2.6 nM.
For COC(=O)CCCc1cn(C(C)(C)C)s/c1=N\C(=O)c1cc(C#N)ccc1OC [Example 46, Methyl 4-{(5Z)-2-tert-butyl-5-[(5-cyano-2-methoxybenzoyl)imino]-2,5-dihydroisothiazol-4-yl}butanoate], the EC50 (rat CB2 [1]) was 0.56 nM and the Ki (rat CB2 [2]) was 17 nM.
CCCCc1cn(C(C)(C)C)s/c1=N\C(=O)c1cc(S(C)(=O)=O)ccc1OC [Example 48, N-[(5Z)-4-butyl-2-tert-butylisothiazol-5(2H)-ylidene]-2-methoxy-5-(methylsulfonyl)benzamide] gave an EC50 (rat CB2 [1]) of 0.56 nM and a Ki (rat CB2 [2]) of 22 nM.
CCCCc1cn(C(C)(C)C)s/c1=N\C(=O)[C@]1(C)CC[C@H](C(=O)NCC)C1(C)C [Example 201, (1R,3S)—N^1-[(5Z)-4-butyl-2-tert-butylisothiazol-5(2H)-ylidene]-N^3-ethyl-1,2,2-trimethylcyclopentane-1,3-dicarboxamide] showed a Ki (human CB2 receptors) of 180 nM and an EC50 (rat CB2 [1]) of 3.5 nM.
CCCCc1cn(C(C)(C)C)s/c1=N\C(=O)[C@]1(C)CC[C@H](C(=O)NCCO)C1(C)C [Example 203, (1R,3S)—N^1-[(5Z)-4-butyl-2-tert-butylisothiazol-5(2H)-ylidene]-N^3-(2-hydroxyethyl)-1,2,2-trimethylcyclopentane-1,3-dicarboxamide] was tested, and the Ki (human CB2 receptors) was 70 nM and the EC50 (rat CB2 [1]) was 3.9 nM.
In the case of CCCCc1cn(C(C)(C)C)s/c1=N\C(=O)[C@@H]1CC[C@](C)(C(=O)OC)C1(C)C [Example 204, Methyl (1S,3R)-3-({[(5Z)-4-butyl-2-tert-butylisothiazol-5(2H)-ylidene]amino}carbonyl)-1,2,2-trimethylcyclopentanecarboxylate], the Ki (human CB2 receptors) is reported as 0.6 nM and the EC50 (rat CB2 [1]) is reported as 0.34 nM.
With CCCCc1cn(C(C)(C)C)s/c1=N\C(=O)[C@@H]1CC[C@](C)(C(=O)O)C1(C)C [Example 205, (1S,3R)-3-({[(5Z)-4-butyl-2-tert-butylisothiazol-5(2H)-ylidene]amino}carbonyl)-1,2,2-trimethylcyclopentanecarboxylic acid] the Ki (human CB2 receptors) was 21 nM and the EC50 (rat CB2 [1]) was 11.7 nM.
CCCCc1cn(C(C)(C)C)s/c1=N\C(=O)[C@]1(C)CC[C@H](NC(C)=O)C1(C)C [Example 256, (1R,3S)-3-(acetylamino)-N-[(5Z)-4-butyl-2-tert-butylisothiazol-5(2H)-ylidene]-1,2,2-trimethylcyclopentanecarboxamide] gave a Ki (human CB2 receptors) of 19 nM and a Ki (rat CB2 [2]) of 28 nM.
In the case of CCCCc1cn(C(C)(C)C)s/c1=N\C(=O)[C@]1(C)CC[C@H](NC(=O)N2CC(O)C2)C1(C)C [Example 260, N-[(1S,3R)-3-({[(5Z)-4-butyl-2-tert-butylisothiazol-5(2H)-ylidene]amino}carbonyl)-2,2,3-trimethylcyclopentyl]-3-hydroxyazetidine-1-carboxamide], the Ki (human CB2 receptors; HEK293 membranes, 0.5 nM [3H]CP-55,940, read-out: human CB2 (Ki)) is reported as 190 nM and the Ki (rat CB2 [2]; HEK293 membranes, 0.5 nM [3H]CP-55,940, read-out: rat CB2 (Ki)) is reported as 361 nM.
Work on CCCCc1cn(C(C)(C)C)s/c1=N\C(=O)[C@]1(C)CC[C@H](NC(=O)N2CC(F)(F)C2)C1(C)C [Example 261, N-[(1S,3R)-3-({[(5Z)-4-butyl-2-tert-butylisothiazol-5(2H)-ylidene]amino}carbonyl)-2,2,3-trimethylcyclopentyl]-3,3-difluoroazetidine-1-carboxamide] yielded a Ki (human CB2 receptors) of 54 nM and a Ki (rat CB2 [2]) of 44 nM.
CCCCc1cn(C(C)(C)C)s/c1=N\C(=O)c1cc(C(F)(F)F)ccc1OCC(C)(C)O [Example 262, N-[(5Z)-4-butyl-2-tert-butylisothiazol-5(2H)-ylidene]-2-(2-hydroxy-2-methylpropoxy)-5-(trifluoromethyl)benzamide] was tested, and the Ki (human CB2 receptors) was 6 nM and the Ki (rat CB2 [2]) was 4.4 nM.
With CCCCc1cn(C(C)(C)C)s/c1=N\C(=O)[C@]1(C)CC[C@H](NC(=O)N2CCC2)C1(C)C [Example 263, N-[(1S,3R)-3-({[(5Z)-4-butyl-2-tert-butylisothiazol-5(2H)-ylidene]amino}carbonyl)-2,2,3-trimethylcyclopentyl]azetidine-1-carboxamide] the Ki (human CB2 receptors) was 33 nM and the Ki (rat CB2 [2]) was 77 nM.
CCCCc1cn(C(C)(C)C)s/c1=N\C(=O)[C@]1(C)CC[C@H](NC(=O)N(C)c2ccccc2)C1(C)C [Example 264, (1R,3S)—N-[(5Z)-4-butyl-2-tert-butylisothiazol-5(2H)-ylidene]-1,2,2-trimethyl-3-({[methyl(phenyl)amino]carbonyl}amino)cyclopentanecarboxamide] showed a Ki (human CB2 receptors) of 11 nM and a Ki (rat CB2 [2]) of 33 nM.
With CCCCc1cn(C(C)(C)C)s/c1=N\C(=O)C12CC3CC(C1)CC(C(=O)OC)(C3)C2 [Example 265, Methyl 3-({[(5Z)-4-butyl-2-tert-butylisothiazol-5(2H)-ylidene]amino}carbonyl)adamantane-1-carboxylate] the Ki (human CB2 receptors) was 0.32 nM and the Ki (rat CB2 [2]) was 0.07 nM.
CCCCc1cn(C(C)(C)C)s/c1=N\C(=O)c1cc(C(F)(F)F)ccc1ONC(C)(C)C [Example 267, 2-[(tert-butylamino)oxy]-N-[(5Z)-4-butyl-2-tert-butylisothiazol-5(2H)-ylidene]-5-(trifluoromethyl)benzamide] gave a Ki (human CB2 receptors) of 19 nM and a Ki (rat CB2 [2]) of 1 nM.
